According to patent publication US20180055055A1, “FOLIAR APPLICATIONS FOR CONTROLLING LEPIDOPTERAN PESTS FOR FRUITS AND/OR FRUIT TREES” (priority 2016, published 2018):

System: Grapholyta molesta
Assay: Open field trial, foliar application on peach trees against Grapholyta molesta
Type: in vivo
Conditions: timing ABC; for Alive larvae per 100 fruit / Deep holes per 100 fruit: 12 days after final application; for % control on alive larvae / % control on deep holes: Abbott equation
From the text: Another open field trial is set up to evaluate the efficacy and selectivity of Compound A against Grapholyta molesta for peach trees (Amiga variety). The trial is designed as randomized complete block with four replications. Compound A is applied only twice (Timing A, and B), while all other treatments are applied three times (Timing A, B and C) where each application is about one week apart.
Treatments are sprayed using a mist spray multi plot equipment, designed for efficacy trials with four independent series of 8 nozzles (ALBUZ, ATR 80 Yellow) and calibrated to apply a spray volume of 1200 L/ha at a pressure of 450 Kpa. The applications target the egg lay stage of second generation at the crop growth stage of BBCH 73-75, 75-76 and 76-77 respectively for timing A, B and C. At twelve days after the final application, the efficacy assessment is carried out on 100 fruits/plot assessing the number of damaged fruits (distinct as superficial stings and deep holes) and the number of alive larvae.
Results are shown in Table 3, where data assessed are also transformed to a percentage of control using Abbott equation. Data are examined according to the Bartlett's test for homogeneity of variance. The treatment means of the assessment data are calculated and compared using Tukey's HSD test (p=0.05). In the untreated there are 18 alive larvae found in 100 fruits/plot, which represented a high infestation situation

[1] = 680 g ai/ha, first listed formulation (Table 3 order: (1) CS 200 g ai/L)
[2] = 680 g ai/ha, second listed formulation (Table 3 order: (2) EC 225 g ai/L)
[3] = 850 ai/ha, second listed formulation (Table 3 order: (2) EC 225 g ai/L)
[4] = 850 g ai/ha, first listed formulation (Table 3 order: (1) CS 200 g ai/L)
[5] = 1020 g ai/ha, first listed formulation (Table 3 order: (1) CS 200 g ai/L)
[6] = 1020 g ai/ha, second listed formulation (Table 3 order: (2) EC 225 g ai/L)

## COP(=S)(OC)Oc1nc(Cl)c(Cl)cc1Cl [Chlorpyriphos-Methyl]
[1]
  Alive larvae per 100 fruit: 0.0 b per 100 fruit
  Deep holes per 100 fruit: 3 b per 100 fruit
  % control on alive larvae: 100.0 a %
  % control on deep holes: 81.3 c %
[2]
  Alive larvae per 100 fruit: 0.0 b per 100 fruit
  Deep holes per 100 fruit: 3 b per 100 fruit
  % control on alive larvae: 100.0 a %
  % control on deep holes: 85.8 bc %
[3]
  Alive larvae per 100 fruit: 0.0 b per 100 fruit
  Deep holes per 100 fruit: 2 b per 100 fruit
  % control on alive larvae: 100.0 a %
  % control on deep holes: 93.0 bc %
[4]
  Alive larvae per 100 fruit: 0.0 b per 100 fruit
  Deep holes per 100 fruit: 2 b per 100 fruit
  % control on alive larvae: 100.0 a %
  % control on deep holes: 93.4 abc %
[5]
  Alive larvae per 100 fruit: 0.0 b per 100 fruit
  Deep holes per 100 fruit: 0 b per 100 fruit
  % control on alive larvae: 100.0 a %
  % control on deep holes: 100.0 a %
[6]
  Alive larvae per 100 fruit: 0.0 b per 100 fruit
  Deep holes per 100 fruit: 0 b per 100 fruit
  % control on alive larvae: 100.0 a %
  % control on deep holes: 100.0 a %

## CCOP(=S)(OCC)Oc1nc(Cl)c(Cl)cc1Cl [Chlorpyriphos-Ethyl]
1080 g ai/ha, EC 480 g ai/L
  Alive larvae per 100 fruit: 0.0 b per 100 fruit
  Deep holes per 100 fruit: 0 b per 100 fruit
  % control on alive larvae: 100.0 a %
  % control on deep holes: 100.0 a %
